According to patent US20250129078A1, “ERBB2 INHIBITORS” (Cogent Biosciences, Inc., priority 2023, published 2025):
Where a name gives a salt, the structure may show the parent alone.

What was measured:
EGFR WT = EGFR WT (Homo sapiens (Human), UniProt P00533); test: ErbB enzyme assay (CisBio HTRF-KinEASE-TK), EGFR WT; format: biochemical; details: ATP at Km (25 μM), 1 h incubation
In short: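 Three-fold DMSO serial dilutions were added to kinase reactions and incubated 1 h at room temperature. Quench used 62.5 nM Sa-XL665 plus 0.25×TK-Ab-Cryptate in detection buffer, followed by another 1 h. Substrate phosphorylation was then measured by dual-wavelength HTRF.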

EGFR wild type = EGFR wild type (Homo sapiens (Human), UniProt P00533); test: ErbB cellular phosphorylation assay (phospho-EGFR ELISA), HEK-293 cells expressing EGFR wild type, EGF stimulated; format: cell-based; details: 1 h treatment
Protocol: HEK-293 cells were engineered to constitutively express ErbB2 mutant L755S or EGFR wild type (constructs obtained from GenScript, Piscataway, NJ). Cells were seeded in poly-D-lysine coated, 96-well plates at a density of 50,000 cells/well in complete medium (DMEM supplemented with 10% fetal bovine serum and G418) and incubated for 24 h at 37° C., 5% CO2 prior to treatment. Cells were treated with compound using three-fold dilutions at final concentrations ranging from […] for 1 h at 37° C., 5% CO2. EGFR-WT cells were stimulated with 500 ng/mL recombinant human EGF (R&D Systems, 236-EG) for an additional 5 min. After compound incubation, medium was removed from the plate, and cells were lysed in buffer containing protease and phosphatase inhibitors ([…]). Cell lysates were analyzed by enzyme-linked immunosorbent assay (ELISA). The ELISAs were performed to measure phosphorylated ErbB2 or phosphorylated EGFR levels, respectively (R&D Systems, DYC-1768, Human Phospho-ErbB2 DuoSet ELISA; DYC1095, Human Phospho-EGFR DuoSet IC ELISA) according to the manufacturer's instructions. Absorbance was measured at 450 nm using a BioTek Cytation 5 plate reader (Agilent, Santa Clara, CA) and IC50 values were calculated using a 4-parameter fit.

ErbB2 V777L = ErbB2 V777L (Homo sapiens (Human), UniProt P04626, V777L); test: ErbB enzyme assay (CisBio HTRF-KinEASE-TK), ErbB2 V777L; format: biochemical
In short: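 HTRF KinEASE-TK tyrosine-kinase read-out of substrate phosphorylation after a final 1 h at ambient temperature, from the 655/620 nm emission ratio.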

EGFR WT, sequence (P00533 25-1210): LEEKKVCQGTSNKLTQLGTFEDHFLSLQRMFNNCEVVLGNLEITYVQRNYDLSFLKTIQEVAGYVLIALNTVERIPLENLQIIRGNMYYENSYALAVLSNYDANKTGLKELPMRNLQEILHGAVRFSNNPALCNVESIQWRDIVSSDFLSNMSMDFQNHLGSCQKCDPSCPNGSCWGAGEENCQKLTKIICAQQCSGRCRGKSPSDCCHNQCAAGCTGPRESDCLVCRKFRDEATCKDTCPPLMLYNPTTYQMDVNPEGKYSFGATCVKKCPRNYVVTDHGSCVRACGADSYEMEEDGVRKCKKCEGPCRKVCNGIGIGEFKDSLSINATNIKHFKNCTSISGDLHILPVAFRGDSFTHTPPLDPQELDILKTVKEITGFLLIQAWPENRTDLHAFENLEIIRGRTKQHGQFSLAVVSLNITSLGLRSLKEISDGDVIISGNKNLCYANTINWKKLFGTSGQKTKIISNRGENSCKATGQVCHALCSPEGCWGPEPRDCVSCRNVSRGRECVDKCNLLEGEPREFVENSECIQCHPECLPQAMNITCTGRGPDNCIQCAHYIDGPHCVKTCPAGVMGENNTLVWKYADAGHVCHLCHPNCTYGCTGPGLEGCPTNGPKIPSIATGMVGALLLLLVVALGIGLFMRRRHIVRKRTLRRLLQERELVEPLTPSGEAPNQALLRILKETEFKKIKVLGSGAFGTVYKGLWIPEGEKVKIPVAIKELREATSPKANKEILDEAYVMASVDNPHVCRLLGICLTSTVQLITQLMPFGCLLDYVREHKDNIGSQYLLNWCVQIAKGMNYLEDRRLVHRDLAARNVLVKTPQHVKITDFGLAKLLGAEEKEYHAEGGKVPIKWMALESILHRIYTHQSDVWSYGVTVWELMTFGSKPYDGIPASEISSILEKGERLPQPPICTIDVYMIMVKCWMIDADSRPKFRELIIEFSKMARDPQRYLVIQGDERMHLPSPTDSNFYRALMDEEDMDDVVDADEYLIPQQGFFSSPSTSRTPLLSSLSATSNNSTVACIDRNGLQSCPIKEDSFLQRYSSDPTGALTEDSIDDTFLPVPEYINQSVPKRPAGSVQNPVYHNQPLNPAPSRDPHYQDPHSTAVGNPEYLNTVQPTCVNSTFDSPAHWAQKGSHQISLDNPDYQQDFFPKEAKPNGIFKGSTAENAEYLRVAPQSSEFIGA
ErbB2 V777L, sequence (P04626 23-1255 V777L): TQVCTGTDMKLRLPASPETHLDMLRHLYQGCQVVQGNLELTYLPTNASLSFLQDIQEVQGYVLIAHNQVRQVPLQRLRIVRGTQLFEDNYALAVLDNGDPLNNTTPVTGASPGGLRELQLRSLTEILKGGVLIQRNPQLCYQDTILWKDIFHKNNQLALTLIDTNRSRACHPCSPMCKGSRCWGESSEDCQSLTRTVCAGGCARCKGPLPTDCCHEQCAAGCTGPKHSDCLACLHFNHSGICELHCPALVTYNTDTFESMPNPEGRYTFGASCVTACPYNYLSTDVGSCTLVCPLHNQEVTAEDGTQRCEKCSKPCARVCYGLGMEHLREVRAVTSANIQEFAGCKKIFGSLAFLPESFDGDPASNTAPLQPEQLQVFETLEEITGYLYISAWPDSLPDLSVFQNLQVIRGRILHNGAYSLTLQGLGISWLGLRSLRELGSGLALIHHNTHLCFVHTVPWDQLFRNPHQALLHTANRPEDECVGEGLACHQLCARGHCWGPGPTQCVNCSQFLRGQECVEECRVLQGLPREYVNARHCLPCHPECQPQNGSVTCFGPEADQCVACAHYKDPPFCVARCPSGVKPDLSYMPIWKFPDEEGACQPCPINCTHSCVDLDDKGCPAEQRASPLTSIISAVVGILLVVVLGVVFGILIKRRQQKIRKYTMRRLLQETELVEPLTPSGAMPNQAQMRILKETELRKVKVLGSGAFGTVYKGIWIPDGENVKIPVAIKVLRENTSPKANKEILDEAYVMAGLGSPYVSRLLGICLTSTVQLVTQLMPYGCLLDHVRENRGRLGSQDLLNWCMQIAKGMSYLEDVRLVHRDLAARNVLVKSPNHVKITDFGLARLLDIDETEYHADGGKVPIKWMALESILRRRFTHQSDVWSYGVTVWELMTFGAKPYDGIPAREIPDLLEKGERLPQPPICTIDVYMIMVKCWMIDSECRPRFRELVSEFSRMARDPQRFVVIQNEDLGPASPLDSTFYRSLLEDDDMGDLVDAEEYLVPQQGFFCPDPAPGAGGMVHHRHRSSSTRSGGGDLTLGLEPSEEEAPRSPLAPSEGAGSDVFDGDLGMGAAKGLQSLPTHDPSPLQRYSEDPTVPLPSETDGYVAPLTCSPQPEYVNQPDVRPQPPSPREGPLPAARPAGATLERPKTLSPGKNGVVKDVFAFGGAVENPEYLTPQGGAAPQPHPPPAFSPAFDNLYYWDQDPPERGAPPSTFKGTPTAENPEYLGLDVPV
EGFR wild type, sequence (P00533 25-1210): as the sequence (P00533 25-1210) above

Compound | IC50 (EGFR WT) [nM] | IC50 (EGFR wild type) [µM] | IC50 (ErbB2 V777L) [nM]
C=CC(=O)N1CCN(c2ncc3ncnc(Nc4ccc(Oc5cc(F)c6c(c5)nnn6C)c(C)c4)c3n2)CC1 [Compound 4, 1-(4-(8-((4-((7-fluoro-1-methyl-1H-benzo[d][1,2,3]triazol-5-yl)oxy)-3-methylphenyl)amino)pyrimido[5,4-d]pyrimidin-2-yl)piperazin-1-yl)prop-2-en-1-one] | < 50 | 1 to 5 | –
C=CC(=O)N1CCN(c2ncc3ncnc(Nc4cc(C)c(Oc5ccc6c(c5)ncn6C)cc4OC)c3n2)CC1 [Compound 11, 1-(4-(8-((2-methoxy-5-methyl-4-((1-methyl-1H-benzo[d]imidazol-5-yl)oxy)phenyl)amino)pyrimido[5,4-d]pyrimidin-2-yl)piperazin-1-yl)prop-2-en-1-one 2,2,2-trifluoroacetate] | 100 to 500 | ≥ 5 | –
C=CC(=O)N1CCN(c2nc3c(Nc4ccc(Oc5ccc6c(c5)nnn6C)c(C)c4)ncnc3cc2C)CC1 [Compound 374, 1-(4-(7-methyl-4-((3-methyl-4-((1-methyl-H-benzo[d][1,2,3]triazol-5-yl)oxy)phenyl)amino)pyrido[3,2-d]pyrimidin-6-yl)piperazin-1-yl)prop-2-en-1-one] | 500 to 1000 | – | 100 to 500
C=CC(=O)N1CCC(Oc2ncc3ncnc(Nc4ccc(Oc5ccn6ncnc6c5)c(C)c4)c3n2)C1 (stereo not drawn) [Compound 377, 1-(3-((8-((4-([1,2,4]triazolo[1,5-a]pyridin-7-yloxy)-3-methylphenyl)amino)pyrimido[5,4-d]pyrimidin-2-yl)oxy)pyrrolidin-1-yl)prop-2-en-1-one] | 100 to 500 | – | 100 to 500
C=CC(=O)N(C)[C@H]1C[C@H](Oc2ncc3ncnc(Nc4ccc(Oc5ccc6c(c5)ncn6C)c(C)c4)c3n2)C1 [Compound 382, N-methyl-N-((1r,3r)-3-((8-((3-methyl-4-((1-methyl-1H-benzo[d]imidazol-5-yl)oxy)phenyl)amino)pyrimido[5,4-d]pyrimidin-2-yl)oxy)cyclobutyl)acrylamide] | ≥ 1000 | – | 50 to 100
C=CC(=O)N(C)[C@H]1C[C@H](Oc2ncc3ncnc(Nc4ccc(Oc5cc(F)c6c(c5)ncn6C)c(C)c4)c3n2)C1 [Compound 386, N-((1r,3r)-3-((8-((4-((7-fluoro-1-methyl-1H-benzo[d]imidazol-5-yl)oxy)-3-methylphenyl)amino)pyrimido[5,4-d]pyrimidin-2-yl)oxy)cyclobutyl)-N-methylacrylamide] | 100 to 500 | – | 50 to 100
C=CC(=O)N1[C@@H]2CC[C@H]1C[C@@H](Oc1ncc3ncnc(Nc4ccc(Oc5ccc6c(c5)ncn6C)c(C)c4)c3n1)C2 [Compound 391, 1-((1R,3r,5S)-3-((8-((3-methyl-4-((1-methyl-1H-benzo[d]imidazol-5-yl)oxy)phenyl)amino)pyrimido[5,4-d]pyrimidin-2-yl)oxy)-8-azabicyclo[3.2.1]octan-8-yl)prop-2-en-1-one] | 500 to 1000 | – | 500 to 1000
C=CC(=O)N1C2CCCC1CC(c1ccc3ncnc(Nc4ccc(Oc5ccc6c(c5)nnn6C)c(C)c4)c3n1)C2 (stereo not drawn) [Compound 395, 1-(3-(4-((3-methyl-4-((1-methyl-1H-benzo[d][1,2,3]triazol-5-yl)oxy)phenyl)amino)pyrido[3,2-d]pyrimidin-6-yl)-9-azabicyclo[3.3.1]nonan-9-yl)prop-2-en-1-one trifluoroacetate] | 100 to 500 | – | 100 to 500
C=CC(=O)N1C2COCC1CC(c1ccc3ncnc(Nc4ccc(Oc5ccc6c(c5)nnn6C)c(C)c4)c3n1)C2 (stereo not drawn) [Compound 396, 1-(7-(4-((3-methyl-4-((1-methyl-1H-benzo[d][1,2,3]triazol-5-yl)oxy)phenyl)amino)pyrido[3,2-d]pyrimidin-6-y1)-3-oxa-9-azabicyclo[3.3.1]nonan-9-yl)prop-2-en-1-one trifluoroacetate] | 100 to 500 | – | 50 to 100
C=CC(=O)N1CCCC(c2ccc3ncnc(Nc4ccc(Oc5ccc6c(c5)nnn6C)c(C)c4)c3n2)C1 (stereo not drawn) [Compound 398, 1-(3-(4-((3-methyl-4-((1-methyl-1H-benzo[d][1,2,3]triazol-5-yl)oxy)phenyl)amino)pyrido[3,2-d]pyrimidin-6-yl)piperidin-1-yl)prop-2-en-1-one] | 100 to 500 | – | 50 to 100
C=CC(=O)NC1CCC(c2ccc3ncnc(Nc4ccc(Oc5ccc6c(c5)nnn6C)c(C)c4)c3n2)CC1 (stereo not drawn) [Compound 400, N-(4-(4-((3-methyl-4-((1-methyl-1H-benzo[d][1,2,3]triazol-5-yl)oxy)phenyl)amino)pyrido[3,2-d]pyrimidin-6-yl)cyclohexyl)acrylamide] | 50 to 100 | – | 100 to 500
C=CC(=O)N1CC=C(c2ncc3ncnc(Nc4ccc(Oc5ccn6ncnc6c5)c(C)c4F)c3n2)C[C@@H]1C [Compound 404, (S)-1-(4-(8-((4-([1,2,4]triazolo[1,5-a]pyridin-7-yloxy)-2-fluoro-3-methylphenyl)amino)pyrimido[5,4-d]pyrimidin-2-yl)-2-methyl-3,6-dihydropyridin-1(2H)-yl)prop-2-en-1-one] | 100 to 500 | – | 100 to 500
C=CC(=O)N1C2C=C(c3ccc4ncnc(Nc5ccc(Oc6ccc7c(c6)nnn7C)c(C)c5)c4n3)CC1CC2 (stereo not drawn) [Compound 409, 1-(3-(4-((3-methyl-4-((1-methyl-1H-benzo[d][1,2,3]triazol-5-yl)oxy)phenyl)amino)pyrido[3,2-d]pyrimidin-6-yl)-8-azabicyclo[3.2.1]oct-2-en-8-yl)prop-2-en-1-one trifluoroacetate] | 100 to 500 | – | 50 to 100
C=CC(=O)NC1CC=C(c2ccc3ncnc(Nc4ccc(Oc5ccc6c(c5)nnn6C)c(C)c4)c3n2)CC1 (stereo not drawn) [Compound 412, N-(4-(4-((3-methyl-4-((1-methyl-1H-benzo[d][1,2,3]triazol-5-yl)oxy)phenyl)amino)pyrido[3,2-d]pyrimidin-6-yl)cyclohex-3-en-1-yl)acrylamide] | 100 to 500 | – | 100 to 500

The next lines start with the values.

IC50 (EGFR WT) [nM] | IC50 (EGFR wild type) [µM] | IC50 (ErbB2 V777L) [nM] | Compound
≥ 1000 | – | 50 to 100 | C=CC(=O)N(C)CCOc1ncc2ncnc(Nc3ccc(Oc4ccc5c(c4)ncn5C)c(C)c3)c2n1 [Compound 384, N-methyl-N-(2-((8-((3-methyl-4-((1-methyl-1H-benzo[d]imidazol-5-yl)oxy)phenyl)amino)pyrimido[5,4-d]pyrimidin-2-yl)oxy)ethyl)acrylamide]
100 to 500 | – | 50 to 100 | C=CC(=O)N(C)[C@H]1C[C@@H](Oc2ncc3ncnc(Nc4ccc(Oc5cc(F)c6c(c5)ncn6C)c(C)c4)c3n2)C1 [Compound 387, N-((1s,3s)-3-((8-((4-((7-fluoro-1-methyl-1H-benzo[d]imidazol-5-yl)oxy)-3-methylphenyl)amino)pyrimido[5,4-d]pyrimidin-2-yl)oxy)cyclobutyl)-N-methylacrylamide]
500 to 1000 | – | 100 to 500 | C=CC(=O)N1C2CCC1CC(c1ccc3ncnc(Nc4ccc(Oc5ccc6c(c5)nnn6C)c(C)c4)c3n1)C2 (stereo not drawn) [Compound 397, 1-(3-(4-((3-methyl-4-((1-methyl-1H-benzo[d][1,2,3]triazol-5-yl)oxy)phenyl)amino)pyrido[3,2-d]pyrimidin-6-y1)-8-azabicyclo[3.2.1]octan-8-yl)prop-2-en-1-one trifluoroacetate]
100 to 500 | – | 50 to 100 | C=CC(=O)N1C2CCCC1CC(c1ccc3ncnc(Nc4cc(C)c(Oc5ccc6c(c5)nnn6C)cc4OC)c3n1)C2 (stereo not drawn) [Compound 401, 1-(3-(4-((2-methoxy-5-methyl-4-((1-methyl-1H-benzo[d][1,2,3]triazol-5-yl)oxy)phenyl)amino)pyrido[3,2-d]pyrimidin-6-yl)-9-azabicyclo[3.3.1]nonan-9-yl)prop-2-en-1-one trifluoroacetatexc]
100 to 500 | – | 100 to 500 | C=CC(=O)N1C2CCCC1CC(c1ccc3ncnc(Nc4ccc(Oc5ccc6c(c5)nnn6C)c(C)c4F)c3n1)C2 (stereo not drawn) [Compound 402, 1-(3-(4-((2-fluoro-3-methyl-4-((1-methyl-1H-benzo[d][1,2,3]triazol-5-yl)oxy)phenyl)amino)pyrido[3,2-d]pyrimidin-6-yl)-9-azabicyclo[3.3.1]nonan-9-yl)prop-2-en-1-one trifluoroacetate]
500 to 1000 | – | 100 to 500 | C=CC(=O)N1C2C=C(c3ccc4ncnc(Nc5ccc(Oc6ccc7c(c6)nnn7C)c(C)c5)c4n3)CC1CCC2 (stereo not drawn) [Compound 405, 1-(3-(4-((3-methyl-4-((1-methyl-1H-benzo[d][1,2,3]triazol-5-yl)oxy)phenyl)amino)pyrido[3,2-d]pyrimidin-6-yl)-9-azabicyclo[3.3.1]non-2-en-9-yl)prop-2-en-1-one]
500 to 1000 | – | 500 to 1000 | C=CC(=O)N1C2C=C(c3ccc4ncnc(Nc5ccc(Oc6ccc7c(c6)nnn7C)c(C)c5F)c4n3)CC1CCC2 (stereo not drawn) [Compound 414, 1-(3-(4-((2-fluoro-3-methyl-4-((1-methyl-1H-benzo[d][1,2,3]triazol-5-yl)oxy)phenyl)amino)pyrido[3,2-d]pyrimidin-6-yl)-9-azabicyclo[3.3.1]non-2-en-9-yl)prop-2-en-1-one]
